Assays:
Assay in all cases: relative viability (nuclei count vs DMSO), 5 days (fraction); higher = more cells survive
Avagacestat + Decitabine = compound: NC(=O)[C@@H](CCC(F)(F)F)N(Cc1ccc(-c2ncon2)cc1F)S(=O)(=O)c1ccc(Cl)cc1 [Avagacestat] + Nc1ncn([C@H]2C[C@H](O)[C@@H](CO)O2)c(=O)n1 [Decitabine] (partner 2 µM)
How it was run: (§1)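 One day after seeding in 1536-well plates, lung cancer cell lines were dosed by pin tool. Dosing was either single-drug or a fixed anchor-drug dose plus five library-drug doses (not always all listed) in √10 steps. After 5 days, nuclei were stained in one fix-and-stain step and counted on 4× images, and relative viability is the nuclei count of treated wells over that of vehicle wells, given as the median of duplicate plates.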

Avagacestat + Olaparib = compound: NC(=O)[C@@H](CCC(F)(F)F)N(Cc1ccc(-c2ncon2)cc1F)S(=O)(=O)c1ccc(Cl)cc1 [Avagacestat] + O=C(c1cc(Cc2n[nH]c(=O)c3ccccc23)ccc1F)N1CCN(C(=O)C2CC2)CC1 [Olaparib] (partner 8 µM)
How it was run: as §1

Avagacestat + Luminespib = compound: NC(=O)[C@@H](CCC(F)(F)F)N(Cc1ccc(-c2ncon2)cc1F)S(=O)(=O)c1ccc(Cl)cc1 [Avagacestat] + CCNC(=O)c1noc(-c2cc(C(C)C)c(O)cc2O)c1-c1ccc(CN2CCOCC2)cc1 [Luminespib] (partner 0.01 µM)
How it was run: as §1

Avagacestat + Lapatinib = compound: NC(=O)[C@@H](CCC(F)(F)F)N(Cc1ccc(-c2ncon2)cc1F)S(=O)(=O)c1ccc(Cl)cc1 [Avagacestat] + CS(=O)(=O)CCNCc1ccc(-c2ccc3ncnc(Nc4ccc(OCc5cccc(F)c5)c(Cl)c4)c3c2)o1 [Lapatinib] (partner 2 µM)
How it was run: as §1

Row | Cell Line | relative viability (Avagacestat + Decitabine; first compound 0.08 µM) | relative viability (Avagacestat + Decitabine; first compound 0.253 µM) | relative viability (Avagacestat + Decitabine; first compound 0.8 µM) | relative viability (Avagacestat + Decitabine; first compound 2.53 µM) | relative viability (Avagacestat + Decitabine; first compound 8 µM) | relative viability (Avagacestat + Olaparib; first compound 0.08 µM) | relative viability (Avagacestat + Olaparib; first compound 0.253 µM) | relative viability (Avagacestat + Olaparib; first compound 0.8 µM) | relative viability (Avagacestat + Olaparib; first compound 2.53 µM) | relative viability (Avagacestat + Olaparib; first compound 8 µM) | relative viability (Avagacestat + Luminespib; first compound 0.08 µM) | relative viability (Avagacestat + Luminespib; first compound 0.253 µM) | relative viability (Avagacestat + Luminespib; first compound 0.8 µM) | relative viability (Avagacestat + Luminespib; first compound 2.53 µM) | relative viability (Avagacestat + Luminespib; first compound 8 µM) | relative viability (Avagacestat + Lapatinib; first compound 0.08 µM) | relative viability (Avagacestat + Lapatinib; first compound 0.253 µM) | relative viability (Avagacestat + Lapatinib; first compound 0.8 µM) | relative viability (Avagacestat + Lapatinib; first compound 2.53 µM) | relative viability (Avagacestat + Lapatinib; first compound 8 µM)
1 | EKVX | 0.391 | 0.299 | 0.378 | 0.354 | 0.36 | 1.04 | 0.926 | 0.918 | 0.73 | 0.769 | 0.798 | 0.973 | 0.859 | 0.809 | 0.751 | 0.227 | 0.208 | 0.226 | 0.186 | 0.184
2 | ChaGo-K-1 | 0.558 | 0.526 | 0.492 | 0.516 | 0.49 | 0.431 | 0.435 | 0.394 | 0.437 | 0.394 | 0.551 | 0.718 | 0.747 | 0.551 | 0.595 |  |  |  |  | 
3 | NCI-H1792 | 0.722 | 0.561 | 0.618 | 0.487 | 0.426 | 0.673 | 0.605 | 0.563 | 0.408 | 0.726 | 0.649 | 0.478 | 0.522 | 0.414 | 0.33 | 1.26 | 0.681 | 1.76 | 0.915 | 0.758
4 | NCI-H23 | 0.416 | 0.316 | 0.308 | 0.328 | 0.272 | 0.302 | 0.316 | 0.315 | 0.335 | 0.296 | 0.229 | 0.235 | 0.215 |  | 0.223 | 1.61 | 1.29 | 1.17 | 1.05 | 1.32
5 | NCI-H2126 | 0.615 | 0.661 | 0.577 | 0.575 | 0.611 | 0.921 | 0.941 | 0.931 | 1.03 | 0.873 | 0.893 | 0.939 | 0.978 | 0.852 | 0.891 | 0.767 | 0.837 | 0.805 | 0.722 | 0.657
6 | LXF-289 | 0.359 | 0.368 | 0.408 | 0.347 | 0.331 | 1.41 | 1.41 | 1.15 | 1.08 | 1.04 | 0.794 | 0.675 | 0.912 | 0.686 | 0.603 | 0.895 | 0.921 | 0.886 | 0.892 | 0.814
7 | NCI-H1437 | 0.643 | 0.668 | 0.654 | 0.598 | 0.628 | 0.804 | 0.743 | 0.696 | 0.667 | 0.543 | 1.4 | 1.28 | 1.12 | 1.17 | 1.05 | 1.07 | 0.972 | 0.878 | 0.69 | 0.602
8 | HCC-366 | 0.463 | 0.344 | 0.36 | 0.306 | 0.271 | 0.45 | 0.461 | 0.378 | 0.402 | 0.308 |  |  |  |  |  | 1.6 | 1.26 | 1.23 | 1.05 | 1.21
9 | NCI-H1299 |  |  |  |  |  | 0.97 | 1.07 | 0.975 | 0.979 | 0.929 |  |  |  |  |  | 1.03 | 0.984 | 0.988 | 0.924 | 0.926
10 | LCLC-103H | 0.753 | 0.76 | 0.776 | 0.561 | 0.583 | 0.809 | 0.617 | 0.845 | 0.745 | 0.766 | 1.1 | 1.27 | 0.979 | 0.808 | 0.851 |  |  |  |  | 
11 | NCI-H441 | 0.263 | 0.232 | 0.245 | 0.265 | 0.24 | 0.679 | 0.592 | 0.656 | 0.803 | 0.613 | 0.441 | 0.403 | 0.327 | 0.361 | 0.301 |  |  |  |  | 
12 | NCI-H1703 |  |  |  |  |  | 0.489 | 0.297 | 0.421 | 0.264 | 0.335 |  |  |  |  |  | 0.986 | 1.28 | 1.44 | 1.02 | 1.03
13 | EBC-1 |  |  |  |  |  | 0.76 | 0.868 | 0.704 | 0.799 | 0.537 |  |  |  |  |  | 0.212 | 0.231 | 0.246 | 0.23 | 0.202
14 | NCI-H2228 |  |  |  |  |  | 0.642 | 0.862 | 0.8 | 0.658 | 0.59 | 0.221 | 0.117 | 0.179 | 0.132 | 0.108 | 1.33 | 0.875 | 1.52 | 1.13 | 0.718
15 | Calu-6 |  |  |  |  |  | 0.7 | 0.862 | 0.722 | 0.609 | 0.585 |  |  |  |  |  | 1.41 | 1.41 | 1.26 | 1.47 | 1.03
16 | IA-LM |  |  |  |  |  | 1.33 | 1.37 | 1.15 | 1.06 | 1.05 |  |  |  |  |  | 1.8 | 1.39 | 1.38 | 1 | 1.07
17 | HCC-78 | 0.675 | 0.726 | 0.75 | 0.683 | 0.669 | 0.786 | 0.948 | 0.632 | 0.67 | 0.712 |  |  |  |  |  | 0.556 | 0.696 | 1.48 | 0.7 | 0.579

Reference: the supplement of paper PMC10307832
